In patent US20250382344A1, “Soluble GLP1/GIP/NPY2 Receptor Triple Agonists” (Boehringer Ingelheim International GmH, priority 2024, published 2025):
Like-named read-outs stand apart in the source and are kept apart here.

Key:
hGIPR = biological target: T1, hGIPR (Homo sapiens, UniProt P48546); assay: hGIPR CreLuc assay in 0.5% and 100% plasma (CHO CRE-luciferase reporter cells); assay type: cell-based
T1 construct: expressed in transfected cells; host or cells: CHO CRE-luciferase reporter cells
T1 sequence (P48546 22-466): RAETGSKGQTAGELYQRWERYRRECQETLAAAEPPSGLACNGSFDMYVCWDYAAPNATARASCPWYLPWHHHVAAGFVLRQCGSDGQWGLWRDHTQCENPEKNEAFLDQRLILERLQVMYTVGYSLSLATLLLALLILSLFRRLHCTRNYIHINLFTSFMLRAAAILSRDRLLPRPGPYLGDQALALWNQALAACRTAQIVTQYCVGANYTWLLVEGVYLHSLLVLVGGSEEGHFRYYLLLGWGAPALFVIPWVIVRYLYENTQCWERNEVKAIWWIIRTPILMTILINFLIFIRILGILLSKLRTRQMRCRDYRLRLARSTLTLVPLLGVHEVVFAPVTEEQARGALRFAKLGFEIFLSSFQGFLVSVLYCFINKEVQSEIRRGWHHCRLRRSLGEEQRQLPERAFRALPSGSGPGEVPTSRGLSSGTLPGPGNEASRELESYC

[1] = Solubility in 0.1 M phosphate buffer at pH 7; assay type: physicochemical; settings: 0.1 M phosphate buffer at pH 7, 10 mg/mL final peptide concentration, shaking 2 hours at room temperature, peptides as TFA-salts; measured sample pH 6.5-7.0
[2] = 0.5% human plasma, read-out: hGIPR 0.5% hP

EC50 (hGIPR; [2]) [nM] | EC50 (hGIPR; 100% human plasma, read-out: hGIPR 100% hP) [nM] | solubility at 2 h [1] [mg/mL] | Compound
0.2 | 2 | 4 | CC[C@H](C)[C@H](NC(=O)[C@H](CC(C)C)NC(=O)[C@H](Cc1c[nH]cn1)NC(=O)[C@H](CCCNC(=N)N)NC(=O)[C@@H](NC(=O)[C@H](Cc1ccccc1)NC(=O)[C@H](C)NC(=O)C(C)(C)NC(=O)[C@H](CCC(N)=O)NC(=O)[C@H](C)NC(=O)[C@H](CCC(N)=O)NC(=O)[C@H](CCCCN)NC(=O)[C@H](CCC(=O)O)NC(=O)[C@H](CC(C)C)NC(=O)C(C)(C)NC(=O)[C@@H](NC(=O)[C@H](CO)NC(=O)[C@H](Cc1ccc(O)cc1)NC(=O)[C@H](CC(=O)O)NC(=O)[C@H](CO)NC(=O)[C@@H](NC(=O)[C@H](Cc1ccccc1)NC(=O)[C@@H](NC(=O)CNC(=O)[C@H](CCC(=O)O)NC(=O)C(C)(C)NC(=O)[C@@H](N)Cc1ccc(O)cc1)[C@@H](C)O)[C@@H](C)O)[C@@H](C)CC)C(C)C)C(=O)N[C@@H](CC(N)=O)C(=O)N[C@@H](CCCCNC(=O)[C@@H](N)CCCCNC(=O)CC[C@H](NC(=O)CC[C@H](NC(=O)CC[C@H](NC(=O)CC[C@H](NC(=O)CC[C@H](NC(=O)CC[C@H](NC(=O)CCCCCCCCCCCCCCCCC(=O)O)C(=O)O)C(=O)O)C(=O)O)C(=O)O)C(=O)O)C(=O)O)C(=O)NC(C)(C)C(=O)N[C@H](C(=O)N[C@@H](CCCNC(=N)N)C(=O)N(C)[C@@H](CCC(N)=O)C(=O)N[C@@H](CCCNC(=N)N)C(=O)N[C@@H](Cc1ccc(O)cc1)C(N)=O)[C@@H](C)O [Compound 17, Y-Aib-E-G-T-F-T-S-D-Y-S-I-Aib-L-E-K-Q-A-Q-Aib-A-F-V-R-H-L-I-N-K(1,3)-Aib-T-R-NMeQ-R-Y-NH2.C18DA-gGlu-gGlu-gGlu-gGlu-gGlu-gGlu-eLys(1,2)]
0.3 |  | 9 | CC[C@H](C)[C@H](NC(=O)[C@H](CC(C)C)NC(=O)[C@H](Cc1c[nH]cn1)NC(=O)[C@H](CCCNC(=N)N)NC(=O)[C@@H](NC(=O)[C@H](Cc1ccccc1)NC(=O)[C@H](C)NC(=O)C(C)(C)NC(=O)[C@H](CCC(N)=O)NC(=O)[C@H](C)NC(=O)[C@H](CCC(N)=O)NC(=O)[C@H](CCCCN)NC(=O)[C@H](CCC(=O)O)NC(=O)[C@H](CC(C)C)NC(=O)C(C)(C)NC(=O)[C@@H](NC(=O)[C@H](CO)NC(=O)[C@H](Cc1ccc(O)cc1)NC(=O)[C@H](CC(=O)O)NC(=O)[C@H](CO)NC(=O)[C@@H](NC(=O)[C@H](Cc1ccccc1)NC(=O)[C@@H](NC(=O)CNC(=O)[C@H](CCC(=O)O)NC(=O)C(C)(C)NC(=O)[C@@H](N)Cc1ccc(O)cc1)[C@@H](C)O)[C@@H](C)O)[C@@H](C)CC)C(C)C)C(=O)N[C@@H](CC(N)=O)C(=O)N[C@@H](CCCCNC(=O)CC[C@H](NC(=O)[C@@H](N)CCCCNC(=O)CC[C@H](NC(=O)CC[C@H](NC(=O)CC[C@H](NC(=O)CC[C@H](NC(=O)CC[C@H](NC(=O)CCCCCCCCCCCCCCCCCCC(=O)O)C(=O)O)C(=O)O)C(=O)O)C(=O)O)C(=O)O)C(=O)O)C(=O)NC(C)(C)C(=O)N[C@H](C(=O)N[C@@H](CCCNC(=N)N)C(=O)N[C@@H](CCC(N)=O)C(=O)N[C@@H](CCCNC(=N)N)C(=O)N[C@@H](Cc1ccc(O)cc1)C(N)=O)[C@@H](C)O [Compound 94, Y-Aib-E-G-T-F-T-S-D-Y-S-I-Aib-L-E-K-Q-A-Q-Aib-A-F-V-R-H-L-I-N-K(1,3)-Aib-T-R-Q-R-Y-NH2.C20DA-gGlu-gGlu-gGlu-gGlu-gGlu-eLys-gGlu(1,2)]
0.4 |  | 4.3 | CC[C@H](C)[C@H](NC(=O)[C@H](CC(C)C)NC(=O)[C@H](Cc1c[nH]cn1)NC(=O)[C@H](CCCNC(=N)N)NC(=O)[C@@H](NC(=O)[C@H](Cc1ccccc1)NC(=O)[C@H](CO)NC(=O)C(C)(C)NC(=O)[C@H](CCC(N)=O)NC(=O)[C@H](C)NC(=O)[C@H](CCC(N)=O)NC(=O)[C@H](CCCCN)NC(=O)[C@H](CCC(=O)O)NC(=O)[C@H](CC(C)C)NC(=O)C(C)(C)NC(=O)[C@@H](NC(=O)[C@H](CO)NC(=O)[C@H](Cc1ccc(O)cc1)NC(=O)[C@H](CC(=O)O)NC(=O)[C@H](CO)NC(=O)[C@@H](NC(=O)[C@H](Cc1ccccc1)NC(=O)[C@@H](NC(=O)CNC(=O)[C@H](CCC(=O)O)NC(=O)C(C)(C)NC(=O)[C@@H](N)Cc1ccc(O)cc1)[C@@H](C)O)[C@@H](C)O)[C@@H](C)CC)C(C)C)C(=O)N[C@@H](CC(N)=O)C(=O)N[C@@H](CCCCNC(=O)[C@@H](N)CCCCNC(=O)CC[C@H](NC(=O)CC[C@H](NC(=O)CC[C@H](NC(=O)CC[C@H](NC(=O)CC[C@H](NC(=O)CC[C@H](NC(=O)CCCCCCCCCCCCCCCCC(=O)O)C(=O)O)C(=O)O)C(=O)O)C(=O)O)C(=O)O)C(=O)O)C(=O)NC(C)(C)C(=O)N[C@H](C(=O)N[C@@H](CCCNC(=N)N)C(=O)N[C@@H](CCC(N)=O)C(=O)N[C@@H](CCCNC(=N)N)C(=O)N[C@@H](Cc1ccc(O)cc1)C(N)=O)[C@@H](C)O [Compound 144, Y-Aib-E-G-T-F-T-S-D-Y-S-I-Aib-L-E-K-Q-A-Q-Aib-S-F-V-R-H-L-I-N-K(1,3)-Aib-T-R-Q-R-Y-NH2.C18DA-gGlu-gGlu-gGlu-gGlu-gGlu-gGlu-eLys(1,2)]
5 |  | 4.1 | CC[C@H](C)[C@H](NC(=O)[C@H](CC(C)C)NC(=O)[C@H](Cc1c[nH]cn1)NC(=O)[C@H](CCCNC(=N)N)NC(=O)[C@@H](NC(=O)[C@H](Cc1ccccc1)NC(=O)[C@H](C)NC(=O)C(C)(C)NC(=O)[C@H](Cc1ccc(O)cc1)NC(=O)[C@H](C)NC(=O)[C@H](CCC(N)=O)NC(=O)[C@H](CCCCN)NC(=O)[C@H](CCC(=O)O)NC(=O)[C@H](CC(C)C)NC(=O)C(C)(C)NC(=O)[C@@H](NC(=O)[C@H](CO)NC(=O)[C@H](Cc1ccc(O)cc1)NC(=O)[C@H](CC(=O)O)NC(=O)[C@H](CO)NC(=O)[C@@H](NC(=O)[C@H](Cc1ccccc1)NC(=O)[C@@H](NC(=O)CNC(=O)[C@H](CCC(=O)O)NC(=O)C(C)(C)NC(=O)[C@@H](N)Cc1ccc(O)cc1)[C@@H](C)O)[C@@H](C)O)[C@@H](C)CC)C(C)C)C(=O)N[C@@H](CC(N)=O)C(=O)N[C@@H](CCCCNC(=O)[C@@H](N)CCCCNC(=O)CC[C@H](NC(=O)CC[C@H](NC(=O)CC[C@H](NC(=O)CC[C@H](NC(=O)CC[C@H](NC(=O)CC[C@H](NC(=O)CCCCCCCCCCCCCCCCC(=O)O)C(=O)O)C(=O)O)C(=O)O)C(=O)O)C(=O)O)C(=O)O)C(=O)NC(C)(C)C(=O)N[C@H](C(=O)N[C@@H](CCCNC(=N)N)C(=O)N[C@@H](CCC(N)=O)C(=O)N[C@@H](CCCNC(=N)N)C(=O)N[C@@H](Cc1ccc(O)cc1)C(N)=O)[C@@H](C)O [Compound 84, Y-Aib-E-G-T-F-T-S-D-Y-S-I-Aib-L-E-K-Q-A-Y-Aib-A-F-V-R-H-L-I-N-K(1,3)-Aib-T-R-Q-R-Y-NH2.C18DA-gGlu-gGlu-gGlu-gGlu-gGlu-gGlu-eLys(1,2)]
0.2 |  | 9.6 | CC[C@H](C)[C@H](NC(=O)[C@H](CC(C)C)NC(=O)[C@H](Cc1c[nH]cn1)NC(=O)[C@H](CCCNC(=N)N)NC(=O)[C@@H](NC(=O)[C@H](Cc1ccccc1)NC(=O)[C@H](C)NC(=O)C(C)(C)NC(=O)[C@H](CCC(N)=O)NC(=O)[C@H](C)NC(=O)[C@H](CCC(N)=O)NC(=O)[C@H](CCCCN)NC(=O)[C@H](CCC(=O)O)NC(=O)[C@H](CC(C)C)NC(=O)C(C)(C)NC(=O)[C@@H](NC(=O)[C@H](CO)NC(=O)[C@H](Cc1ccc(O)cc1)NC(=O)[C@H](CC(=O)O)NC(=O)[C@H](CO)NC(=O)[C@@H](NC(=O)[C@H](Cc1ccccc1)NC(=O)[C@@H](NC(=O)CNC(=O)[C@H](CCC(=O)O)NC(=O)C(C)(C)NC(=O)[C@@H](N)Cc1ccc(O)cc1)[C@@H](C)O)[C@@H](C)O)[C@@H](C)CC)C(C)C)C(=O)N[C@@H](CC(N)=O)C(=O)N[C@@H](CCCCNC(=O)[C@@H](N)CCCCNC(=O)CC[C@H](NC(=O)CC[C@H](NC(=O)CC[C@H](NC(=O)CC[C@H](NC(=O)CC[C@H](NC(=O)CC[C@H](NC(=O)CCCCCCCCCCCCCCCCC(=O)O)C(=O)O)C(=O)O)C(=O)O)C(=O)O)C(=O)O)C(=O)O)C(=O)N[C@@H](C)C(=O)N[C@H](C(=O)N[C@@H](CCCNC(=N)N)C(=O)N[C@@H](CCC(N)=O)C(=O)N[C@@H](CCCNC(=N)N)C(=O)N[C@@H](Cc1ccc(O)cc1)C(N)=O)[C@@H](C)O [Compound 159, Y-Aib-E-G-T-F-T-S-D-Y-S-I-Aib-L-E-K-Q-A-Q-Aib-A-F-V-R-H-L-I-N-K(1,3)-A-T-R-Q-R-Y-NH2.C18DA-gGlu-gGlu-gGlu-gGlu-gGlu-gGlu-eLys(1,2)]
